Measured values published in the NIST ThermoML archive (doi:10.1021/je050414d).

Assay: xn = mol fraction of the nth substance listed
Settings: 101 kPa, Liquid; for viscosity: Capillary tube (Ostwald / Ubbelohde) method

CCOC(=O)OCC [diethyl carbonate] + Cc1ccccc1
Settings	mass density [kg/m3]	viscosity [mPa·s]
298.15 K, x1 = 0.1014	874.5	0.573
298.15 K, x1 = 0.1984	885.94	0.59
298.15 K, x1 = 0.3006	897.67	0.608
298.15 K, x1 = 0.4024	908.97	0.627
298.15 K, x1 = 0.5212	921.72	0.649
298.15 K, x1 = 0.6022	930.18	0.664
298.15 K, x1 = 0.7016	940.28	0.684
298.15 K, x1 = 0.7995	949.95	0.702
298.15 K, x1 = 0.8975	959.36	0.722
298.15 K, x1 = 1	968.97	0.746
303.15 K, x1 = 0.1014	870.46	0.542
303.15 K, x1 = 0.1984	881.62	0.557
303.15 K, x1 = 0.3006	893.06	0.573
303.15 K, x1 = 0.4024	904.06	0.59
303.15 K, x1 = 0.5212	916.47	0.609
303.15 K, x1 = 0.6022	924.71	0.622
303.15 K, x1 = 0.7016	934.52	0.639
303.15 K, x1 = 0.7995	943.93	0.657
303.15 K, x1 = 0.8975	953.08	0.674
303.15 K, x1 = 1	962.39	0.695
313.15 K, x1 = 0.1014	860.95	0.484
313.15 K, x1 = 0.1984	872.04	0.497
313.15 K, x1 = 0.3006	883.39	0.51
313.15 K, x1 = 0.4024	894.33	0.523
313.15 K, x1 = 0.5212	906.66	0.539
313.15 K, x1 = 0.6022	914.85	0.55
313.15 K, x1 = 0.7016	924.6	0.564
313.15 K, x1 = 0.7995	933.95	0.579
313.15 K, x1 = 0.8975	943.04	0.593
313.15 K, x1 = 1	952.32	0.61
323.15 K, x1 = 0.1014	850.49	0.434
323.15 K, x1 = 0.1984	861.33	0.445
323.15 K, x1 = 0.3006	872.43	0.457
323.15 K, x1 = 0.4024	883.11	0.468
323.15 K, x1 = 0.5212	895.17	0.481
323.15 K, x1 = 0.6022	903.16	0.491
323.15 K, x1 = 0.7016	912.68	0.503
323.15 K, x1 = 0.7995	921.81	0.515
323.15 K, x1 = 0.8975	930.72	0.527
323.15 K, x1 = 1	939.78	0.541
333.15 K, x1 = 0.1014	841.39	0.394
333.15 K, x1 = 0.1984	852.01	0.403
333.15 K, x1 = 0.3006	862.85	0.413
333.15 K, x1 = 0.4024	873.3	0.422
333.15 K, x1 = 0.5212	885.09	0.434
333.15 K, x1 = 0.6022	892.88	0.442
333.15 K, x1 = 0.7016	902.2	0.452
333.15 K, x1 = 0.7995	911.11	0.461
333.15 K, x1 = 0.8975	919.81	0.471
333.15 K, x1 = 1	928.69	0.483
343.15 K, x1 = 0.1014	831.46	0.358
343.15 K, x1 = 0.1984	841.79	0.365
343.15 K, x1 = 0.3006	852.32	0.373
343.15 K, x1 = 0.4024	862.48	0.382
343.15 K, x1 = 0.5212	873.94	0.391
343.15 K, x1 = 0.6022	881.51	0.398
343.15 K, x1 = 0.7016	890.57	0.407
343.15 K, x1 = 0.7995	899.24	0.415
343.15 K, x1 = 0.8975	907.69	0.425
343.15 K, x1 = 1	916.33	0.435
353.15 K, x1 = 0.1014	821.53	0.318
353.15 K, x1 = 0.1984	831.67	0.326
353.15 K, x1 = 0.3006	842.02	0.334
353.15 K, x1 = 0.4024	852.02	0.342
353.15 K, x1 = 0.5212	863.29	0.352
353.15 K, x1 = 0.6022	870.74	0.358
353.15 K, x1 = 0.7016	879.66	0.367
353.15 K, x1 = 0.7995	888.2	0.375
353.15 K, x1 = 0.8975	896.52	0.384
353.15 K, x1 = 1	905.02	0.393
363.15 K, x1 = 0.1014	808.79	0.293
363.15 K, x1 = 0.1984	819.07	0.3
363.15 K, x1 = 0.3006	829.57	0.306
363.15 K, x1 = 0.4024	839.71	0.313
363.15 K, x1 = 0.5212	851.16	0.322
363.15 K, x1 = 0.6022	858.77	0.328
363.15 K, x1 = 0.7016	867.85	0.336
363.15 K, x1 = 0.7995	876.55	0.343
363.15 K, x1 = 0.8975	885.04	0.351
363.15 K, x1 = 1	893.71	0.358
